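Briefly, cells in 96-well plates were exposed to five compound concentrations for 48 h, and endpoints were estimated by linear interpolation. At the GI50, growth is halved.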 Activity calls are given as the source filed them. Cut-off read from the data, not from the text of the source: active = GI50 up to about 1.1 µM and inactive = higher.
Tests used:
Experiment in all cases: growth of human tumour cells (NCI), 48 h
786-0 = test system: 786-0
HCT-116 = test system: HCT-116
HOP-92 = test system: HOP-92
IGROV-1 = test system: IGROV-1
LOX IMVI = test system: LOX IMVI
M14 = test system: M14
MOLT-4 = test system: MOLT-4
NCI-H460 = test system: NCI-H460
SF-268 = test system: SF-268
SK-MEL-28 = test system: SK-MEL-28
SK-MEL-2 = test system: SK-MEL-2
SN12C = test system: SN12C
SR = test system: SR
SW-620 = test system: SW-620
RXF 393 = test system: RXF 393

SMILES	GI50 (786-0)	GI50 (HCT-116)	GI50 (HOP-92)	GI50 (IGROV-1)	GI50 (LOX IMVI)	GI50 (M14)	GI50 (MOLT-4)	GI50 (NCI-H460)	GI50 (SF-268)	GI50 (SK-MEL-28)	GI50 (SK-MEL-2)	GI50 (SN12C)	GI50 (SR)	GI50 (SW-620)	GI50 (RXF 393)
CCOC(=O)NC(=O)c1cn(CC(=O)NCC(=O)NCC(=O)NCCCN2CCN(CCCNC(=O)CNC(=O)CNC(=O)Cn3cc(C(=O)NC(=O)OCC)c(=O)[nH]c3=O)CC2)c(=O)[nH]c1=O	> 100 µM (inactive)	> 100 µM (inactive)	> 100 µM (inactive)	> 100 µM (inactive)	> 100 µM (inactive)	> 100 µM (inactive)	> 100 µM (inactive)	> 100 µM (inactive)	> 100 µM (inactive)	> 100 µM (inactive)	> 100 µM (inactive)	> 100 µM (inactive)	> 100 µM (inactive)	> 100 µM (inactive)	
O=C1CCC2(O)c3ccccc3C2Cc2ccccc21 (stereo not given)	> 100 µM (inactive)	> 100 µM (inactive)	70.1 µM (inactive)	> 100 µM (inactive)	> 100 µM (inactive)		> 100 µM (inactive)	> 100 µM (inactive)	> 100 µM (inactive)	> 100 µM (inactive)	> 100 µM (inactive)	> 100 µM (inactive)	> 100 µM (inactive)	> 100 µM (inactive)	> 100 µM (inactive)
COc1ccc2c(=O)c([Se]c3coc4cc(OC)ccc4c3=O)coc2c1	44.5 µM (inactive)	19.8 µM (inactive)	> 100 µM (inactive)	34.4 µM (inactive)	> 100 µM (inactive)	18.3 µM (inactive)	51.8 µM (inactive)	18.7 µM (inactive)	> 100 µM (inactive)	52.1 µM (inactive)	> 100 µM (inactive)	54.5 µM (inactive)	44.1 µM (inactive)	> 100 µM (inactive)	48.6 µM (inactive)
COc1ccc(C(=C[N+](=O)[O-])c2ccc(OC)cc2)cc1	20.8 µM (inactive)	8.05 µM (inactive)	25.4 µM (inactive)	9.42 µM (inactive)	9.44 µM (inactive)	11.9 µM (inactive)	3.17 µM (inactive)	10.7 µM (inactive)	20 µM (inactive)	16.2 µM (inactive)	6.14 µM (inactive)	24 µM (inactive)	4.38 µM (inactive)	4.02 µM (inactive)	12.3 µM (inactive)
N/N=C(/C(=O)Nc1cccc(Cl)c1)C(C(=O)c1ccc(O)cc1O)C1OC(=O)c2ccccc21 (stereo not given)	> 100 µM (inactive)	> 100 µM (inactive)		> 100 µM (inactive)	87.7 µM (inactive)	> 100 µM (inactive)	31.8 µM (inactive)	52.2 µM (inactive)	51.4 µM (inactive)	> 100 µM (inactive)	> 100 µM (inactive)	> 100 µM (inactive)	40.4 µM (inactive)	> 100 µM (inactive)	
O=C(/C=C\c1cccc2ccccc12)c1ccc(Br)cc1	19.2 µM (inactive)	16.7 µM (inactive)	36.5 µM (inactive)	23.6 µM (inactive)		18.1 µM (inactive)	31 µM (inactive)	18.4 µM (inactive)	23.7 µM (inactive)	12.1 µM (inactive)		34.8 µM (inactive)		12.1 µM (inactive)	
CCOC(=O)[C@H]1Nc2ccc([N+](=O)[O-])cc2C2c3ccccc3CC21 (stereo not given in full)	19.7 µM (inactive)	16.7 µM (inactive)		28 µM (inactive)	17.9 µM (inactive)	15.2 µM (inactive)	5.12 µM (inactive)	18.8 µM (inactive)	16.5 µM (inactive)	12.1 µM (inactive)	31.6 µM (inactive)	15.5 µM (inactive)	9.93 µM (inactive)	11.9 µM (inactive)	4.53 µM (inactive)
CCCCCCCCCCCCC(CC)CCCCC(=O)O (stereo not given)	31.8 µM (inactive)	> 53.1 µM (inactive)	> 73.3 µM (inactive)	> 100 µM (inactive)	> 65.5 µM (inactive)	> 100 µM (inactive)	27 µM (inactive)	> 62.4 µM (inactive)	> 100 µM (inactive)	> 100 µM (inactive)	> 100 µM (inactive)	> 83 µM (inactive)	> 53.2 µM (inactive)	> 61.2 µM (inactive)	> 60 µM (inactive)
CCCCOP1(=O)CC(C)=C(Cl)C(C)(OC)C1 (stereo not given)	> 100 µM (inactive)	61.4 µM (inactive)	43.7 µM (inactive)	> 100 µM (inactive)	> 100 µM (inactive)	> 100 µM (inactive)	34.4 µM (inactive)	> 100 µM (inactive)	> 100 µM (inactive)	> 100 µM (inactive)	41 µM (inactive)	> 100 µM (inactive)	31.8 µM (inactive)	46.7 µM (inactive)	> 100 µM (inactive)
O=C1CCN2CCC(=O)c3c2c(cc2ccccc32)N1	> 100 µM (inactive)	> 100 µM (inactive)		> 100 µM (inactive)	> 100 µM (inactive)	> 100 µM (inactive)	> 100 µM (inactive)	> 100 µM (inactive)	> 100 µM (inactive)		> 100 µM (inactive)	> 100 µM (inactive)		> 100 µM (inactive)	44.7 µM (inactive)
COC(=O)CCCCCOS(=O)(=O)c1ccc(C)cc1	> 100 µM (inactive)	> 100 µM (inactive)	> 100 µM (inactive)	> 100 µM (inactive)	> 100 µM (inactive)	> 100 µM (inactive)	78.7 µM (inactive)	> 100 µM (inactive)	> 100 µM (inactive)	> 100 µM (inactive)	> 100 µM (inactive)	> 100 µM (inactive)	> 100 µM (inactive)	> 100 µM (inactive)	> 100 µM (inactive)
COC(=O)C1CCC(C)CC1=O (stereo not given)	> 100 µM (inactive)	> 100 µM (inactive)	> 100 µM (inactive)	> 100 µM (inactive)	> 100 µM (inactive)	> 100 µM (inactive)	> 100 µM (inactive)	> 100 µM (inactive)	> 100 µM (inactive)	> 100 µM (inactive)	> 100 µM (inactive)	> 100 µM (inactive)		> 100 µM (inactive)	> 100 µM (inactive)
CCOC(=O)C1=C(Nc2ccccc2)SC/C1=N\NC(=O)Cc1ccccc1	> 100 µM (inactive)	> 100 µM (inactive)	> 100 µM (inactive)	> 100 µM (inactive)	> 100 µM (inactive)	> 100 µM (inactive)	> 100 µM (inactive)	> 100 µM (inactive)	> 100 µM (inactive)	> 100 µM (inactive)	> 100 µM (inactive)	> 100 µM (inactive)	> 100 µM (inactive)	> 100 µM (inactive)	> 100 µM (inactive)
CC1=C(SC#N)S(=O)(=O)N(c2ccccc2)C(C)=C1SC#N	49.4 µM (inactive)	3.27 µM (inactive)	3.63 µM (inactive)	6.56 µM (inactive)	12.9 µM (inactive)	> 10 µM (inactive)	20 µM (inactive)	32.8 µM (inactive)	69.2 µM (inactive)	61.9 µM (inactive)	26.7 µM (inactive)	56.6 µM (inactive)	24.4 µM (inactive)	41.8 µM (inactive)	21.8 µM (inactive)
Cc1cc2occ(C)c(=O)c2c2c1OC(C)(C)S2	> 100 µM (inactive)	> 100 µM (inactive)	55.3 µM (inactive)	> 100 µM (inactive)	> 100 µM (inactive)	> 100 µM (inactive)	37.3 µM (inactive)	> 100 µM (inactive)	> 100 µM (inactive)	> 100 µM (inactive)	> 100 µM (inactive)	> 100 µM (inactive)	65.9 µM (inactive)	> 100 µM (inactive)	88.1 µM (inactive)
COc1cc2c3c(c1OC)-c1ccccc1C(C(OC(C)=O)c1ccccc1)C3N(C)CC2 (stereo not given)	74.5 µM (inactive)	34.5 µM (inactive)	21 µM (inactive)	> 100 µM (inactive)	44.9 µM (inactive)	51.2 µM (inactive)	7.59 µM (inactive)	30.5 µM (inactive)	93.8 µM (inactive)	31.8 µM (inactive)	17.2 µM (inactive)	34.7 µM (inactive)		65.3 µM (inactive)	70.6 µM (inactive)
CCCCCCCCCCCC(=O)OCC1OC(OC)C(NC(=O)N(CCCl)N=O)C(O)C1O (stereo not given)	0.621 µM (active)	13.2 µM (inactive)		29.7 µM (inactive)	6.27 µM (inactive)	11.1 µM (inactive)	1.69 µM (inactive)	5.22 µM (inactive)	2.32 µM (inactive)	15.8 µM (inactive)	26.3 µM (inactive)	11.6 µM (inactive)	2.79 µM (inactive)	4.27 µM (inactive)	13.3 µM (inactive)
COc1ccc(CN(O)C2C(CO)OC(n3cc(I)c(=O)[nH]c3=O)C2O)cc1 (stereo not given)	> 100 µM (inactive)	> 100 µM (inactive)	> 100 µM (inactive)	> 100 µM (inactive)	> 100 µM (inactive)	> 100 µM (inactive)	> 100 µM (inactive)	> 100 µM (inactive)	> 100 µM (inactive)	> 100 µM (inactive)	> 100 µM (inactive)	> 100 µM (inactive)	> 100 µM (inactive)	> 100 µM (inactive)	> 100 µM (inactive)
COc1cc2c(c(OC)c1OC)-c1ccc(SC)c(=O)cc1[C@@H](NCc1cccc(C#N)c1)CC2	0.0332 µM (active)	0.0173 µM (active)	0.0401 µM (active)	0.057 µM (active)	0.0184 µM (active)	0.0188 µM (active)	0.0328 µM (active)	0.0268 µM (active)	0.0164 µM (active)	0.0221 µM (active)	0.0304 µM (active)	0.0313 µM (active)	0.00414 µM (active)	0.0132 µM (active)	0.00408 µM (active)

— ChEMBL document CHEMBL1201862, “PubChem BioAssay data set” (2004)
